Consider 3 molecules from patent publication EP0736009B1, “N-OXIDES OF 4-ARYLPIPERAZINES AND 4-ARYLPIPERIDINES AS ANTIPSYCHOTIC DRUGS” (ORTHO PHARMACEUTICAL CORPORATION, priority 1993, dated 1995).

The structures appear in SMILES notation.

One data set deals with Rat. The data set can be described thus: Block of Conditioned Avoidance Responding (Rat) test (CAR). It counts as in vivo, Male, Fischer 344 rats. Conditions: for Loss of escape: % failures to escape (group mean), measure of general sedative potential, at CAR 15 mg/kg ip; for % CAR at 15 mg/kg: mean % change in CAR vs vehicle pretreatment day, 15 mg/kg ip, negative number = blockade of CAR. From the text: The antipsychotic activity of the compounds of the invention may be determined by the Block of Conditioned Avoidance Responding (Rat) test (CAR), references being Cook, L. and E. Weidley in Ann. N.Y. Acad. Sci., 1957, 6, 740-752, and Davidson, A.B. and E. Weidley in Life Sci., 1976, 18, 1279-1284. A reading of -20% in the CAR test was generally taken to represent a minimum value for a compound to be designated as active at a given dose. In addition, the affinity of the compounds for several receptors found in the central nervous system was evaluated; the affinity for the D-2 (dopamine-2) receptors is also listed in Table 1. As modulation of this receptor is generally recognized to be beneficial in the treatment of schizophrenia (G. P. Reynolds Trends Pharmacol. Sci. 1992, 13, 116), affinity for this receptor indicates potential utility for the compounds. […] Block of Conditioned Avoidance Responding (Rat) Apparatus: Rat operant chambers, housed within sound attenuated booths, both from […] Instruments Ltd., were used in this test. The test chamber (8" H x […] D) is constructed of aluminum and plexiglass with floor grid bars of stainless-steel (1/8" O.D.) spaced 9/16" apart. A stainless-steel operation level 1-1/2" wide projects 3/4" into the chamber and is positioned 2-2/8" above the grid floor. The shock stimulus is delivered via the grid floor by a Coulbourn Instruments solid state module. The parameters of the test and the collection of data are controlled automatically. Training: Male, Fischer 344 rats obtained from Charles River (Kingston, NY) weighing more than 200 g, are individually housed with chow and water provided ad libitum. The rats are trained for two weeks to approach criterion levels in the avoidance test (90% avoidance rate). One-hour training sessions are run at about the same time each day for four or five days a week. The training session consists of 120 trials, with the conditioned stimuli presented every 30 sec. A trial begins with presentation of the conditioned stimuli (a light and a tone). If the rat responds by depressing the operant lever during the 15-second presentation of the conditioned stimuli, the trial is terminated and the animal is credited with a CAR. Failure to respond during the conditioned stimuli causes the presentation of the unconditioned stimulus (UCS), a 0.7 mA shock which is accompanied by a light and tone for five seconds. If the rat depressed the lever within the ten-second period, the shock and trial are terminated and an escape response recorded. If the rat fails to depress the lever during the UCS (shock), the trial is terminated after ten seconds of shock and the absence of a response is scored as a failure to escape. […] presses have no effect. If a rat performs at the 90% CAR level for two weeks, it is then run twice a week on the test schedule (see below) until baseline performance stabilized. Before any drug is administered, two weeks of CAR at a rate of 90% or better is required. The percent change in CAR on the drug treatment day compared to vehicle pretreatment day is the key measure. The percent change (% change) in CAR is determined using the following formula: % change CAR = ((% CAR for Day 2/% CAR for Day 1) x 100)-100 [formula] A negative number indicates a blockade of CAR, whereas a positive number would indicate increased CAR. The test results are reported as the mean % change for the group of rats. Failure to escape, a measure of the general sedative potential of the compound, was calculated for each animal as follows: % Failures = # of Failures to Escape/# of trials [formula] The % failures, viz., loss of escape, is also reported as a group mean. Failures to escape are monitored closely and a session is terminated if ten failures occurred. ED50 values and 95% confidence limits are calculated using linear regression analysis. […]

Data set [1] has as its target T1, D-2 (dopamine-2) receptors (Rattus norvegicus, UniProt P61169).
T1 construct: The D2 assay employed a P2 fraction from the striatum; from tissue; host or cells: rat striatum, P2 fraction (synaptosomal membranes)
The data set can be described thus: Dopamine D2 receptor binding assay (3H-spiperone, striatal P2 fraction). On the set-up: species or system male, Wistar rats. The conditions noted are these: rat striatum P2 fraction; 3H-spiperone 0.05 nM; 45 min at 37°C. The text has this:
The antipsychotic activity of the compounds of the invention may be determined by the Block of Conditioned Avoidance Responding (Rat) test (CAR), references being Cook, L. and E. Weidley in Ann. N.Y. Acad. Sci., 1957, 6, 740-752, and Davidson, A.B. and E. Weidley in Life Sci., 1976, 18, 1279-1284. A reading of -20% in the CAR test was generally taken to represent a minimum value for a compound to be designated as active at a given dose. In addition, the affinity of the compounds for several receptors found in the central nervous system was evaluated; the affinity for the D-2 (dopamine-2) receptors is also listed in Table 1. As modulation of this receptor is generally recognized to be beneficial in the treatment of schizophrenia (G. P. Reynolds Trends Pharmacol. Sci. 1992, 13, 116), affinity for this receptor indicates potential utility for the compounds. […].
The dopamine D2 binding activity of compounds was determined using a P2 fraction (synaptosomal membranes) prepared from male, Wistar rats. The D2 assay employed a P2 fraction from the striatum, the ligand ^3H-spiperone at a concentration of 0.05 nM, and 1 mM haloperidol as a blank determinant. […].
The data from this assay were analyzed by calculating the percent inhibition of the binding of the tritiated ligands by given concentrations of the test compound. KI values, where given, were obtained from the logit analysis of concentration-inhibition curves.

T1 sequence (P61169 whole entry): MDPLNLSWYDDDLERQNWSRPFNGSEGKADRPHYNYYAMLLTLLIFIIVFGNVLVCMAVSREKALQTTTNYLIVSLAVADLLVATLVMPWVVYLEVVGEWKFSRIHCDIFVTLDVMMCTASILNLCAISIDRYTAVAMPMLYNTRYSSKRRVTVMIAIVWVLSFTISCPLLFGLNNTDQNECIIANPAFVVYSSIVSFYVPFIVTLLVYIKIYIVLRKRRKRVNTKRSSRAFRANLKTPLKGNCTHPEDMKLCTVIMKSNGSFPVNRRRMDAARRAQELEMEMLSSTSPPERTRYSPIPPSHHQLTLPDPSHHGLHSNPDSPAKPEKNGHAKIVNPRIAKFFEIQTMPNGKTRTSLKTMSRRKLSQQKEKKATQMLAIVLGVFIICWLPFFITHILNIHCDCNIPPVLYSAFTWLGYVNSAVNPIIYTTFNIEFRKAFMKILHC

Usually Ki stands for the equilibrium dissociation constant of an inhibitor or competing ligand from its target. Higher therefore signals lower affinity. As for `CC(C)Oc1ccccc1C1CC[N+]([O-])(Cc2cccc(C(=O)N3[C@H](C)CCC[C@@H]3C)c2)CC1` (relative stereo) [Compound 3, 1-[3-[[4-[2-(1-Methylethoxy)phenyl]-1-piperidinyl-1-oxide]methyl]benzoyl]-cis-2.6-dimethylpiperidine], in the data set on Rat, the Loss of escape is 0.4% and the “% CAR at 15 mg/kg” value is recorded as -37.7%. Further, affinity in data set [1] was put at a Ki of 371 nM.
Taken in the same sequence, the figures for `CC(C)Oc1ccccc1[N+]1([O-])CCN(Cc2cccc(C(=O)N3CCCCC3)c2)CC1` [Compound 1, 1-[3-[[4-[2-(1-Methylethoxy)ehenyl]-4-oxide-1-piperazinyl]methyl]benzoyl]piperidine] were 44.8%, -91.7% and 140 nM.
Taken in the same sequence, the figures for `CC(C)Oc1ccccc1N1CC[N+]([O-])(Cc2cccc(C(=O)N3CCCCC3)c2)CC1` [Compound 2, 1-[3-[[4-[2-(1-Methylethoxy)phenyl]-1-piperazinyl-1-oxide]methyl]benzoyl]piperidine] were 31.5%, -87.6% and 355 nM.
